Measurements as given in PubChem BioAssay (NCI).
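Exposure lasted 48 hours, with cells grown in 96-well plates and compounds tested at five concentrations. At the TGI there is no net growth.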

Tests used:
Test in all cases: NCI tumour cell line growth inhibition, 48 h
SK-MEL-28 melanoma = tested on: SK-MEL-28 melanoma
OVCAR-4 ovarian = tested on: OVCAR-4 ovarian
UACC-257 melanoma = tested on: UACC-257 melanoma
OVCAR-8 ovarian = tested on: OVCAR-8 ovarian
SK-MEL-5 melanoma = tested on: SK-MEL-5 melanoma
RPMI-8226 leukemia = tested on: RPMI-8226 leukemia
HL-60(TB) leukemia = tested on: HL-60(TB) leukemia
UO-31 renal = tested on: UO-31 renal
M19-MEL melanoma = tested on: M19-MEL melanoma
K-562 leukemia = tested on: K-562 leukemia
786-0 renal = tested on: 786-0 renal
HOP-18 NSCLC = tested on: HOP-18 NSCLC
TK-10 renal = tested on: TK-10 renal
HCT-116 colon = tested on: HCT-116 colon
HCT-15 colon = tested on: HCT-15 colon
HT29 colon = tested on: HT29 colon
DMS 273 small cell lung = tested on: DMS 273 small cell lung
SK-MEL-2 melanoma = tested on: SK-MEL-2 melanoma
SF-268 CNS = tested on: SF-268 CNS
KM12 colon = tested on: KM12 colon
UACC-62 melanoma = tested on: UACC-62 melanoma
SNB-75 CNS = tested on: SNB-75 CNS
A549 NSCLC = tested on: A549 NSCLC
MOLT-4 leukemia = tested on: MOLT-4 leukemia
OVCAR-5 ovarian = tested on: OVCAR-5 ovarian
DLD-1 colon = tested on: DLD-1 colon
NCI-H226 lung = tested on: NCI-H226 lung
SF-295 CNS = tested on: SF-295 CNS
DMS 114 small cell lung = tested on: DMS 114 small cell lung
NCI-H23 lung = tested on: NCI-H23 lung
HOP-92 NSCLC = tested on: HOP-92 NSCLC
MALME-3M melanoma = tested on: MALME-3M melanoma
U251 CNS = tested on: U251 CNS
M14 melanoma = tested on: M14 melanoma
RXF 393 renal = tested on: RXF 393 renal
LXFL 529 NSCLC = tested on: LXFL 529 NSCLC
NCI-H460 lung = tested on: NCI-H460 lung
SR leukemia = tested on: SR leukemia
IGROV1 ovarian = tested on: IGROV1 ovarian
CCRF-CEM leukemia = tested on: CCRF-CEM leukemia
COLO 205 colon = tested on: COLO 205 colon
SNB-78 CNS = tested on: SNB-78 CNS
CAKI-1 renal = tested on: CAKI-1 renal
SF-539 CNS = tested on: SF-539 CNS
NCI-H522 lung = tested on: NCI-H522 lung
HOP-62 NSCLC = tested on: HOP-62 NSCLC
SK-OV-3 ovarian = tested on: SK-OV-3 ovarian
SN12C renal = tested on: SN12C renal
SW-620 colon = tested on: SW-620 colon
ACHN renal = tested on: ACHN renal
LOX IMVI melanoma = tested on: LOX IMVI melanoma
EKVX NSCLC = tested on: EKVX NSCLC
A498 renal = tested on: A498 renal
XF 498 CNS = tested on: XF 498 CNS
KM20L2 colon = tested on: KM20L2 colon
HCC-2998 colon = tested on: HCC-2998 colon
SNB-19 CNS = tested on: SNB-19 CNS

CCCC(=O)OCC(O)CO (stereo not given)
TGI (SK-MEL-28 melanoma): > 5000 µM
TGI (OVCAR-4 ovarian): > 5000 µM
TGI (UACC-257 melanoma): > 5000 µM
TGI (OVCAR-8 ovarian): > 5000 µM
TGI (SK-MEL-5 melanoma): > 5000 µM
TGI (RPMI-8226 leukemia): > 5000 µM
TGI (HL-60(TB) leukemia): > 5000 µM
TGI (UO-31 renal): > 5000 µM
TGI (M19-MEL melanoma): > 5000 µM
TGI (K-562 leukemia): > 5000 µM
TGI (786-0 renal): > 5000 µM
TGI (HOP-18 NSCLC): > 5000 µM
TGI (TK-10 renal): > 5000 µM
TGI (HCT-116 colon): > 5000 µM
TGI (HCT-15 colon): > 5000 µM
TGI (HT29 colon): > 5000 µM
TGI (DMS 273 small cell lung): > 5000 µM
TGI (SK-MEL-2 melanoma): > 5000 µM
TGI (SF-268 CNS): > 5000 µM
TGI (KM12 colon): > 5000 µM
TGI (UACC-62 melanoma): > 5000 µM
TGI (SNB-75 CNS): > 5000 µM
TGI (A549 NSCLC): > 5000 µM
TGI (MOLT-4 leukemia): > 5000 µM
TGI (OVCAR-5 ovarian): 4700 µM
TGI (DLD-1 colon): > 5000 µM
TGI (NCI-H226 lung): > 5000 µM
TGI (SF-295 CNS): > 5000 µM
TGI (DMS 114 small cell lung): > 5000 µM
TGI (NCI-H23 lung): > 5000 µM
TGI (HOP-92 NSCLC): > 5000 µM
TGI (MALME-3M melanoma): > 5000 µM
TGI (U251 CNS): > 5000 µM
TGI (M14 melanoma): > 5000 µM
TGI (RXF 393 renal): > 5000 µM
TGI (LXFL 529 NSCLC): > 5000 µM
TGI (NCI-H460 lung): > 5000 µM
TGI (SR leukemia): > 5000 µM
TGI (IGROV1 ovarian): > 5000 µM
TGI (CCRF-CEM leukemia): > 5000 µM
TGI (COLO 205 colon): > 5000 µM
TGI (SNB-78 CNS): > 5000 µM
TGI (CAKI-1 renal): > 5000 µM
TGI (SF-539 CNS): > 5000 µM
TGI (NCI-H522 lung): > 5000 µM
TGI (HOP-62 NSCLC): > 5000 µM
TGI (SK-OV-3 ovarian): > 5000 µM
TGI (SN12C renal): > 5000 µM
TGI (SW-620 colon): > 5000 µM
TGI (ACHN renal): > 5000 µM
TGI (LOX IMVI melanoma): > 5000 µM

CC(C)Cc1cccc(C(C)C)c1NC(=O)CCC(=O)N/N=C1\C(=N/NC(=O)CCC(=O)Nc2c(C(C)C)cccc2C(C)C)C(c2ccc3c(c2)OCO3)Oc2ccccc21 (stereo not given)
TGI (SK-MEL-28 melanoma): > 100 µM
TGI (OVCAR-4 ovarian): > 100 µM
TGI (UACC-257 melanoma): > 100 µM
TGI (EKVX NSCLC): > 100 µM
TGI (OVCAR-8 ovarian): > 100 µM
TGI (SK-MEL-5 melanoma): > 100 µM
TGI (RPMI-8226 leukemia): > 100 µM
TGI (HL-60(TB) leukemia): > 100 µM
TGI (UO-31 renal): > 100 µM
TGI (M19-MEL melanoma): > 100 µM
TGI (K-562 leukemia): > 100 µM
TGI (TK-10 renal): > 100 µM
TGI (HCT-116 colon): > 100 µM
TGI (HCT-15 colon): > 100 µM
TGI (HT29 colon): > 100 µM
TGI (DMS 273 small cell lung): > 100 µM
TGI (A498 renal): > 100 µM
TGI (SK-MEL-2 melanoma): > 100 µM
TGI (SF-268 CNS): > 100 µM
TGI (KM12 colon): > 100 µM
TGI (UACC-62 melanoma): > 100 µM
TGI (SNB-75 CNS): > 100 µM
TGI (A549 NSCLC): > 100 µM
TGI (MOLT-4 leukemia): > 100 µM
TGI (OVCAR-5 ovarian): > 100 µM
TGI (DLD-1 colon): > 100 µM
TGI (NCI-H226 lung): > 100 µM
TGI (SF-295 CNS): > 100 µM
TGI (DMS 114 small cell lung): > 100 µM
TGI (NCI-H23 lung): > 100 µM
TGI (HOP-92 NSCLC): > 100 µM
TGI (U251 CNS): > 100 µM
TGI (M14 melanoma): > 100 µM
TGI (RXF 393 renal): > 100 µM
TGI (LXFL 529 NSCLC): > 100 µM
TGI (NCI-H460 lung): > 100 µM
TGI (XF 498 CNS): > 100 µM
TGI (SR leukemia): > 100 µM
TGI (IGROV1 ovarian): > 100 µM
TGI (CCRF-CEM leukemia): > 100 µM
TGI (COLO 205 colon): > 100 µM
TGI (SNB-78 CNS): > 100 µM
TGI (CAKI-1 renal): > 100 µM
TGI (SF-539 CNS): > 100 µM
TGI (KM20L2 colon): > 100 µM
TGI (HCC-2998 colon): > 100 µM
TGI (NCI-H522 lung): > 100 µM
TGI (HOP-62 NSCLC): > 100 µM
TGI (SK-OV-3 ovarian): > 100 µM
TGI (SN12C renal): > 100 µM
TGI (SW-620 colon): > 100 µM
TGI (ACHN renal): > 100 µM
TGI (LOX IMVI melanoma): > 100 µM
TGI (SNB-19 CNS): > 100 µM
